Test results reported in patent US9663473B2 (Actelion Pharmaceuticals Ltd, priority 2013, dated 2017).

biological target: T1, recombinant human ALX receptor (Homo sapiens, UniProt P25090); experiment: Intracellular calcium measurements (FLIPR), ALX receptor agonistic activity; format: cell-based; conditions: HEK293-hALXR-Gα16 cells, Fluo-4 calcium signal, normalized to WKYMVm 10 nM
T1 construct: expressed in transfected cells; host or cells: HEK293 (HEK293-hALXR-Gα16)
T1 sequence (P25090 1-351): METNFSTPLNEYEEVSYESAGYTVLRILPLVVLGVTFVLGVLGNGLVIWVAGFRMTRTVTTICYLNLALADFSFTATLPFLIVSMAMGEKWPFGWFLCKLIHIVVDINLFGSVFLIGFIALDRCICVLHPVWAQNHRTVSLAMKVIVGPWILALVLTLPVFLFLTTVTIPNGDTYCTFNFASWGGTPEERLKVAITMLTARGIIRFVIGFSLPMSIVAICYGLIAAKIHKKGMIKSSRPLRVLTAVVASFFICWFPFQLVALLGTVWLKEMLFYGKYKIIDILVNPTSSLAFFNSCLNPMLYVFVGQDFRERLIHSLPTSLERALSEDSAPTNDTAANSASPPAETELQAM
Summary of the method: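 Agonist-induced calcium flux was read by FLIPR (488/540 nm) as baseline-subtracted peak emission, expressed relative to WKYMVm at 10 nM final. Cells used: HEK293-hALXR-Gα16, dye-loaded 60 min at 37° C. with 1 μM Fluo-4 AM before compound dose-response addition.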

| EC50 [nM] | SMILES |
| --- | --- |
| 1170 | COc1ccc(C[C@@H](NC(=O)NC(C)c2ccc(OC(F)(F)F)cc2)c2nc3ccccc3[nH]2)cc1 (stereo partly drawn) [Example 381, 1-((R)-1-(1H-Benzo[d]imidazol-2-yl)-2-(4-methoxyphenyl)ethyl)-3-(1-(4-(trifluoromethoxy)phenyl)ethyl)urea] |
| 1900 | COc1ccc(C[C@@H](NC(=O)N2CC3CC2CN3C(=O)OC(C)(C)C)c2nc3ccccc3[nH]2)cc1 (stereo partly drawn) [Example 382, tert-Butyl 5-(((R)-1-(1H-benzo[d]imidazol-2-yl)-2-(4-methoxyphenyl)ethyl)carbamoyl)-2,5-diazabicyclo[2.2.1]heptane-2-carboxylate] |
| 1780 | COc1ccc(C[C@@H](NC(=O)N[C@H](C)C2CCCCC2)c2nc3ccccc3[nH]2)cc1 [Example 383, 1-((R)-1-(1H-Benzo[d]imidazol-2-yl)-2-(4-methoxyphenyl)ethyl)-3-((R)-1-cyclohexylethyl)urea] |
| 1220 | COc1ccc(CC(NC(=O)NCc2ccon2)c2nc3ccccc3[nH]2)cc1 (stereo not drawn) [Example 384, 1-(1-(1H-Benzo[d]imidazol-2-yl)-2-(4-methoxyphenyl)ethyl)-3-(isoxazol-3-ylmethyl)urea] |
| 1030 | COc1ccc(CC(NC(=O)NCc2cccnc2OC)c2nc3ccccc3[nH]2)cc1 (stereo not drawn) [Example 385, 1-(1-(1H-Benzo[d]imidazol-2-yl)-2-(4-methoxyphenyl)ethyl)-3-((2-methoxypyridin-3-yl)methyl)urea] |
| 1240 | COc1ccc(C[C@@H](NC(=O)NC(C)c2ccncn2)c2nc3ccccc3[nH]2)cc1 (stereo partly drawn) [Example 386, 1-((R)-1-(1H-Benzo[d]imidazol-2-yl)-2-(4-methoxyphenyl)ethyl)-3-(1-(pyrimidin-4-yl)ethyl)urea] |
| 1370 | COc1ccc(CNC(=O)N[C@H](Cc2ccc(OC)cc2)c2nc3ccccc3[nH]2)cc1 [Example 387, (R)-1-(1-(1H-Benzo[d]imidazol-2-yl)-2-(4-methoxyphenyl)ethyl)-3-(4-methoxybenzyl)urea] |
| 1070 | COc1ccc(CC(NC(=O)NCCCN(C)C)c2nc3ccccc3[nH]2)cc1 (stereo not drawn) [Example 388, 1-(1-(1H-Benzo[d]imidazol-2-yl)-2-(4-methoxyphenyl)ethyl)-3-(3-(dimethylamino)propyl)urea] |
| 1170 | COc1ccc(C[C@@H](NC(=O)NC2(c3ccccc3Cl)CC2)c2nc3ccccc3[nH]2)cc1 [Example 389, (R)-1-(1-(1H-Benzo[d]imidazol-2-yl)-2-(4-methoxyphenyl)ethyl)-3-(1-(2-chlorophenyl)cyclopropyl)urea] |
| 2680 | COc1ccc(C[C@@H](NC(=O)NCCN2CCN(C(C)=O)CC2)c2nc3ccccc3[nH]2)cc1 [Example 390, (R)-1-(1-(1H-Benzo[d]imidazol-2-yl)-2-(4-methoxyphenyl)ethyl)-3-(2-(4-acetylpiperazin-1-yl)ethyl)urea] |
| 2720 | COc1ccc(CC(NC(=O)NCCN2CCCC2)c2nc3ccccc3[nH]2)cc1 (stereo not drawn) [Example 391, 1-(1-(1H-Benzo[d]imidazol-2-yl)-2-(4-methoxyphenyl)ethyl)-3-(2-(pyrrolidin-1-yl)ethyl)urea] |
| 2410 | COc1ccc(C[C@@H](NC(=O)NCc2ccccc2)c2nc3ccccc3[nH]2)cc1 [Example 392, (R)-1-(1-(1H-Benzo[d]imidazol-2-yl)-2-(4-methoxyphenyl)ethyl)-3-benzylurea] |
| 808 | COc1ccc(C[C@H](NC(=O)NC2CC(C)(C)NC(C)(C)C2)c2nc3ccccc3[nH]2)cc1 [Example 397, (S)-1-(1-(1H-benzo[d]imidazol-2-yl)-2-(4-methoxyphenyl)ethyl)-3-(2,2,6,6-tetramethylpiperidin-4-yl)urea] |
| 372 | COc1ccc(CC(NC(=O)Nc2cc(C)on2)c2nc3ccccc3[nH]2)cc1 (stereo not drawn) [Example 401, 1-(1-(1H-Benzo[d]imidazol-2-yl)-2-(4-methoxyphenyl)ethyl)-3-(5-methylisoxazol-3-yl)urea] |
| 784 | COc1ccc(CC(NC(=O)Nc2ncc(C)s2)c2nc3ccccc3[nH]2)cc1 (stereo not drawn) [Example 402, 1-(1-(1H-Benzo[d]imidazol-2-yl)-2-(4-methoxyphenyl)ethyl)-3-(5-methylthiazol-2-yl)urea] |
